In a compilation of properties of binary mixtures (doi:10.1016/j.jct.2020.106093):

Test: xn = mol fraction of the nth substance listed
Settings: 100.9 kPa

CC(=O)[O-].CC[NH2+]CC + O
Settings | electrical conductivity [S/m] | speed of sound [m/s] | viscosity [mPa·s]
298.15 K, x1 = 0.714 | – | – | 68.2
298.15 K, x1 = 0.835 | – | 1507 | –
298.15 K, x1 = 0.838 | 0.231 | – | –
298.15 K, x1 = 0.945 | 0.23 | – | –
300.65 K, x1 = 0.015 | – | – | 1.263
300.65 K, x1 = 0.055 | – | – | 2.88
300.65 K, x1 = 0.119 | – | – | 7.17
300.65 K, x1 = 0.24 | – | – | 21.9
300.65 K, x1 = 0.351 | – | – | 34.6
300.65 K, x1 = 0.549 | – | – | 52.4
300.65 K, x1 = 0.714 | – | – | 60
303.15 K, x1 = 0.007 | 1.69 | – | –
303.15 K, x1 = 0.015 | 3.24 | 1595 | 1.189
303.15 K, x1 = 0.054 | 4.76 | – | –
303.15 K, x1 = 0.055 | – | 1751 | 2.67
303.15 K, x1 = 0.119 | – | 1819 | 6.51
303.15 K, x1 = 0.12 | 3.2 | – | –
303.15 K, x1 = 0.24 | 1.5 | 1741 | 19.6
303.15 K, x1 = 0.35 | – | 1677 | –
303.15 K, x1 = 0.353 | 0.823 | – | –
303.15 K, x1 = 0.549 | – | 1569 | 46.3
303.15 K, x1 = 0.55 | 0.473 | – | –
303.15 K, x1 = 0.708 | – | 1524 | –
303.15 K, x1 = 0.714 | 0.365 | – | 53
303.15 K, x1 = 0.838 | 0.297 | – | –
303.15 K, x1 = 0.945 | 0.29 | – | –
305.65 K, x1 = 0.015 | – | – | 1.121
305.65 K, x1 = 0.055 | – | – | 2.48
305.65 K, x1 = 0.119 | – | – | 5.94
305.65 K, x1 = 0.168 | – | – | 9.61
305.65 K, x1 = 0.351 | – | – | 27.2
305.65 K, x1 = 0.549 | – | – | 41.1
305.65 K, x1 = 0.714 | – | – | 47
308.15 K, x1 = 0.015 | – | 1601 | 1.059
308.15 K, x1 = 0.055 | – | 1745 | 2.31
308.15 K, x1 = 0.119 | – | 1807 | 5.44
308.15 K, x1 = 0.168 | – | 1786 | 8.71
308.15 K, x1 = 0.24 | – | 1727 | 15.67
308.15 K, x1 = 0.35 | – | 1664 | –
308.15 K, x1 = 0.351 | – | – | 24.2
308.15 K, x1 = 0.549 | – | 1555 | 36.6
308.15 K, x1 = 0.708 | – | 1509 | –
308.15 K, x1 = 0.714 | – | – | 41.9
310.65 K, x1 = 0.015 | – | – | 1.003
310.65 K, x1 = 0.055 | – | – | 2.15
310.65 K, x1 = 0.119 | – | – | 5
310.65 K, x1 = 0.168 | – | – | 7.94
310.65 K, x1 = 0.351 | – | – | 21.7
310.65 K, x1 = 0.714 | – | – | 37.4
310.65 K, x1 = 0.84 | – | – | 38
313.15 K, x1 = 0.015 | – | 1605 | 0.952
313.15 K, x1 = 0.055 | – | 1739 | 2.01
313.15 K, x1 = 0.119 | – | 1794 | 4.6
313.15 K, x1 = 0.168 | – | 1772 | 7.26
313.15 K, x1 = 0.24 | – | 1713 | 12.76
313.15 K, x1 = 0.35 | – | 1650 | –
